“And” between values parts separate entries of the source, which are not always exact repeats. Identical values can stand only once.
Assays:
Conditions in all cases: incubation time: 72 h
[1] = test system: MDA-MB-436; assay: drug sensitivity score (DSS), CellTiter-Glo (DSS (AUC-based score)); higher = stronger drug effect (viability inhibition or cytotoxicity); extreme values may be limits of the assay
Summary of the method: (§1)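 Each compound occupied 5 concentrations in 10-fold steps over its own 10,000-fold range in 384-well plates, into which breast cancer cell lines were seeded as 20 µl suspension. Following 72 h of incubation, CellTox Green fluorescence (485/520 nm) was measured, and CellTiter-Glo luminescence was measured after 10 min at room temperature. Plates were individually normalised to 0.1 % DMSO and a positive kill control. From the area under the fitted dose-response curve, a drug sensitivity score was calculated.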

[2] = test system: CAL-148; assay: as above
Summary of the method: as §1

[3] = test system: MCF-10A; assay: as above
Summary of the method: as §1

[4] = test system: HCC1143; assay: as above
Summary of the method: as §1

[5] = test system: HCC1599; assay: as above
Summary of the method: as §1

[6] = test system: CAL-51; assay: as above
Summary of the method: as §1

[7] = test system: BT-549; assay: as above
Summary of the method: as §1

[8] = test system: CAL-85-1; assay: as above
Summary of the method: as §1

[9] = test system: MDA-MB-436; assay: normalised viability (% of control), CellTiter-Blue; higher = more viable cells (about 100 = DMSO control)
Summary of the method: (§2)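 After 72 h on compound-loaded 384-well plates, breast cancer cell lines received 2.5 µl CellTiter-Blue reagent for 2 h at 37 °C. Fluorescence at 560/590 nm was scaled per plate so that vehicle was 100 and a positive kill control was 0. The value stands for normalised viability at a single listed concentration of the series.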

[10] = test system: HDQ-P1; assay: as above
Summary of the method: as §2

[11] = test system: SK-BR-3; assay: as above
Summary of the method: as §2

[12] = test system: MDA-MB-468; assay: as above
Summary of the method: as §2

[13] = test system: CAL-148; assay: as above
Summary of the method: as §2

[14] = test system: MDA-MB-231; assay: as above
Summary of the method: as §2

[15] = test system: MDA-MB-453; assay: as above
Summary of the method: as §2

[16] = test system: HCC1143; assay: as above
Summary of the method: as §2

[17] = test system: HCC1599; assay: as above
Summary of the method: as §2

[18] = test system: MFM-223; assay: as above
Summary of the method: as §2

[19] = test system: CAL-51; assay: as above
Summary of the method: as §2

[20] = test system: CAL-120; assay: as above
Summary of the method: as §2

[21] = test system: Hs578T; assay: as above
Summary of the method: as §2

[22] = test system: BT-549; assay: as above
Summary of the method: as §2

[23] = test system: BT-474; assay: as above
Summary of the method: as §2

[24] = test system: CAL-85-1; assay: as above
Summary of the method: as §2

COc1cc2ncnc(Nc3ccc(F)c(Cl)c3)c2cc1OCCCN1CCOCC1 [Gefitinib]
Conditions | drug sensitivity score
[1] | 0
[2] | 2.08
[3] | 17.7
[4] | 0
[5] | 0
[6] | 0
[7] | 0
[8] | 9.09

normalised viability
Conditions | 3 nM | 10 nM | 30 nM | 100 nM | 1000 nM | 10000 nM
[9] | – | 90.6% and 82.3% | – | – | 88.3% and 81.4% | 69.9% and 62%
[10] | 88.5% and 105% | – | 87% and 110% | 91% and 109% | – | –
[11] | – | 88.1% and 97.7% | – | – | 67.2% | 20.8% and 20.5%
[12] | – | 97.6% and 107% | – | – | 57.8% and 65.9% | 38.7% and 38.4%
[13] | 83% and 87.9% | – | 96.2% and 85.9% | 94.4% and 90.2% | – | –
[14] | – | 83.8% and 98.3% | – | – | 94.6% and 114% | 81.1% and 77%
[15] | 113% and 111% | – | 85.4% and 90.8% | 88.2% and 89.2% | – | –
[16] | – | 65.4% and 86.2% | – | – | 64.3% and 84.5% | 68.2% and 68.7%
[17] | – | 90.8% and 106% | – | – | 75.2% and 81.4% | 64.6% and 70.1%
[18] | – | 89.2% and 87.1% | – | – | 92.2% and 89% | 71.9% and 64.2%
[19] | 107% and 110% | – | 104% and 106% | 108% and 102% | – | –
[20] | – | 76.8% and 88.1% | – | – | 76% and 85.9% | 60% and 62.1%
[21] | – | 100% and 105% | – | – | 91.4% and 112% | 77.4% and 74.4%
[22] | – | 92.3% and 89.6% | – | – | 89% and 101% | 65.2% and 59.6%
[23] | – | 104% and 116% | – | – | 58.7% and 65.5% | 27.3% and 22.7%
[24] | 90.7% and 85.5% | – | 84.7% and 89.6% | 88.5% and 85.5% | – | –

O=C(Nc1ccncc1)C(=O)c1cn(Cc2ccc(Cl)cc2)c2ccccc12 [Indibulin]
Conditions | drug sensitivity score
[1] | 11.9
[2] | 0
[3] | 0
[4] | 5.89
[5] | 7.03
[6] | 19.4
[7] | 12.6
[8] | 13

normalised viability [%]
Conditions | 3 nM | 10 nM | 30 nM | 100 nM | 1000 nM | 10000 nM
[9] | – | 111 | – | – | 41.4 | 66.3
[10] | 90.5 | – | 87.7 | 74.8 | – | –
[11] | – | 94.5 | – | – | 19.9 | 20.6
[12] | – | 95.7 | – | – | 49.8 | 36.7
[13] | 95.4 | – | 92.1 | 94.5 | – | –
[14] | – | 103 | – | – | 20.3 | 16.1
[15] | 97.2 | – | 61.7 | 65.5 | – | –
[16] | – | 80.7 | – | – | 41.1 | 41
[17] | – | 113 | – | – | 124 | 103
[18] | – | 112 | – | – | 63.7 | 68.5
[19] | 106 | – | 104 | 102 | – | –
[20] | – | 85.7 | – | – | 35.9 | 28.1
[21] | – | 110 | – | – | 56.3 | 18.5
[22] | – | 103 | – | – | 31.4 | 23.5
[23] | – | 99.9 | – | – | 47.2 | 39.2
[24] | 102 | – | 91.3 | 95 | – | –

NC(=O)c1ccc(I)c([N+](=O)[O-])c1 [Iniparib]
Conditions | drug sensitivity score
[1] | 3.5
[2] | 0
[3] | 0
[4] | 0
[5] | 0
[6] | 0
[7] | 0
[8] | 0

normalised viability [%]
Conditions | 3 nM | 10 nM | 30 nM | 100 nM | 1000 nM | 10000 nM
[9] | – | 104 | – | – | 116 | 109
[10] | 99.3 | – | 104 | 111 | – | –
[11] | – | 89.7 | – | – | 104 | 91.5
[12] | – | 97.9 | – | – | 107 | 91.6
[13] | 85.6 | – | 92.8 | 90.2 | – | –
[14] | – | 88.1 | – | – | 89.6 | 111
[15] | 91.7 | – | 94.7 | 99.9 | – | –
[16] | – | 93.6 | – | – | 102 | 91.3
[17] | – | 88.3 | – | – | 88.3 | 89.8
[18] | – | 93.9 | – | – | 99 | 95.4
[19] | 92.6 | – | 92.9 | 96.4 | – | –
[20] | – | 87.3 | – | – | 98.6 | 72.7
[21] | – | 115 | – | – | 108 | 109
[22] | – | 104 | – | – | 112 | 116
[23] | – | 95.2 | – | – | 106 | 96.6
[24] | 91.5 | – | 83.8 | 89.5 | – | –

CCc1c2c(nc3ccc(OC(=O)N4CCC(N5CCCCC5)CC4)cc13)-c1cc3c(c(=O)n1C2)COC(=O)[C@]3(O)CC [Irinotecan]
Conditions | drug sensitivity score
[1] | 7.54
[2] | 7.67
[3] | 1.93
[4] | 0
[5] | 1.9
[6] | 3.68
[7] | 4
[8] | 0

Conditions | normalised viability
[9], 10 nM | 89.1% and 93%
[9], 1000 nM | 79.6% and 92.3%
[10], 3 nM | 109% and 101%
[10], 30 nM | 99.4% and 104%
[10], 100 nM | 99.8% and 101%
[11], 10 nM | 92.4% and 108%
[11], 10000 nM | 36.6% and 41.3%
[12], 10 nM | 106% and 105%
[12], 1000 nM | 76% and 87.3%
[12], 10000 nM | 35.5% and 42.8%
[13], 3 nM | 77.4% and 98.8%
[13], 30 nM | 90.3% and 101%
[13], 100 nM | 80.5% and 99.7%
[14], 10 nM | 85.2% and 94.5%
[14], 1000 nM | 84.7% and 89.4%
[14], 10000 nM | 72.8% and 78.7%
[15], 3 nM | 101% and 124%
[15], 30 nM | 85.5% and 96.2%
[15], 100 nM | 99.8% and 110%
[16], 10 nM | 74.2% and 87.3%
[16], 1000 nM | 91.4% and 95.9%
[16], 10000 nM | 47.7% and 62.6%
[17], 10 nM | 81.2% and 102%
[17], 1000 nM | 74.3% and 81.7%
[17], 10000 nM | 57.8% and 78.1%
[18], 10 nM | 88.5% and 97%
[18], 1000 nM | 100% and 99.8%
[19], 3 nM | 106% and 120%
[19], 30 nM | 99% and 110%
[19], 100 nM | 98.4% and 106%
[20], 10 nM | 83.3% and 96.8%
[20], 1000 nM | 68.2% and 89.1%
[20], 10000 nM | 47.4% and 55.8%
[21], 10 nM | 98.6% and 100%
[21], 1000 nM | 83% and 95.2%
[22], 10 nM | 80.8% and 86%
[22], 1000 nM | 82.2% and 84.3%
[22], 10000 nM | 71% and 62%
[23], 10 nM | 102% and 114%
[23], 1000 nM | 106% and 109%
[23], 10000 nM | 97.2% and 105%
[24], 3 nM | 94.6% and 96.1%
[24], 30 nM | 78.8% and 92.5%
[24], 100 nM | 86.4% and 103%
